US20130096100A1, “DI(ARYLAMINO)ARYL COMPOUND” (ASTELLAS PHARMA INC., priority 2007, published 2013)

What was measured:
Type in all cases: biochemical
MER = target: T1, MER (Homo sapiens, UniProt Q12866); assay: Kinase inhibition profiling, MER (Test Example 6); details: 100 nM; read-out: inhibitory activity against MER
T1 construct: purchased Carna Biosciences Inc., Japan (contract measurement)
T1 sequence (Q12866 21-999): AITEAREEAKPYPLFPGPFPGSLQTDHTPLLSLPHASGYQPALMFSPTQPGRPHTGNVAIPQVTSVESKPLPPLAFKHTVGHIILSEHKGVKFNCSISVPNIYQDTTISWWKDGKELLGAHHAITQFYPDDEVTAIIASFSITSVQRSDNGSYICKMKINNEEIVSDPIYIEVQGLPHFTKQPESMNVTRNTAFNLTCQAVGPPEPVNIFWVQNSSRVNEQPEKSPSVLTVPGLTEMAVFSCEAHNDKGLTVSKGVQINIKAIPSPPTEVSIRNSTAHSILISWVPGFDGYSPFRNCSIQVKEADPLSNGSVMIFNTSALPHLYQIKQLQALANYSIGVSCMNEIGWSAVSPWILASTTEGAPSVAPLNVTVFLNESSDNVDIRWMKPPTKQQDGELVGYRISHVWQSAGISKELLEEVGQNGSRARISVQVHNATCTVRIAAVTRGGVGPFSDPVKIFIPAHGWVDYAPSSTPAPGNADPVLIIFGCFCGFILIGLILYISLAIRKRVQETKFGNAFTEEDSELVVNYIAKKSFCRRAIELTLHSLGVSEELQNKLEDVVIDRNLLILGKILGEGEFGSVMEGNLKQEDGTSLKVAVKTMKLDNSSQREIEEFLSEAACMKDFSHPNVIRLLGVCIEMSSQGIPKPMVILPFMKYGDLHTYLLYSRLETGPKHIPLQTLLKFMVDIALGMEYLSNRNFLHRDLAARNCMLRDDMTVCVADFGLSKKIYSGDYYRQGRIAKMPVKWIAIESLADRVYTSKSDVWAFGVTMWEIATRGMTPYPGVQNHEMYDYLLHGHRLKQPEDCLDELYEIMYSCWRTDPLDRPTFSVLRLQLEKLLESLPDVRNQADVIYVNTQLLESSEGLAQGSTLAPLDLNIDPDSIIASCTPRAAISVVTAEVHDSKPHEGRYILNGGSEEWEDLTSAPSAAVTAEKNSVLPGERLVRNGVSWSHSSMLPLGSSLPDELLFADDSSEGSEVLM

MNK2 = target: T2, MNK2 (Homo sapiens, UniProt Q9HBH9); assay: Kinase inhibition profiling, MNK2 (Test Example 6); details: 100 nM; read-out: inhibitory activity against MNK2
T2 construct: purchased Carna Biosciences Inc., Japan (contract measurement)
T2 sequence (Q9HBH9 whole entry): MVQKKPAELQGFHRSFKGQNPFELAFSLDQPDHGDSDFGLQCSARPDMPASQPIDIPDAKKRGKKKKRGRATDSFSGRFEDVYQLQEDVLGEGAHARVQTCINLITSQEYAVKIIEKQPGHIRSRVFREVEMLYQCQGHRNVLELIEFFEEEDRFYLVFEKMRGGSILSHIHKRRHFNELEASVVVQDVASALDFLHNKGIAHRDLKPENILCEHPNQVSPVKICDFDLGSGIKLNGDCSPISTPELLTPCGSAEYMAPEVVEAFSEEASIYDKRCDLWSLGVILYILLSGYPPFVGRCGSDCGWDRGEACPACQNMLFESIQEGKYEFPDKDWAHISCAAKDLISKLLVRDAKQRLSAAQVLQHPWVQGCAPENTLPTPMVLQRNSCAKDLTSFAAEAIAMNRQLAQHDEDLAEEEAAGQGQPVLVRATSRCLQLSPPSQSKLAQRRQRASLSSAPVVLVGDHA

PHKG1 = target: T3, PHKG1 (Homo sapiens, UniProt Q16816); assay: Kinase inhibition profiling, PHKG1 (Test Example 6); details: 100 nM; read-out: inhibitory activity against PHKG1
T3 construct: purchased Carna Biosciences Inc., Japan (contract measurement)
T3 sequence (Q16816 whole entry): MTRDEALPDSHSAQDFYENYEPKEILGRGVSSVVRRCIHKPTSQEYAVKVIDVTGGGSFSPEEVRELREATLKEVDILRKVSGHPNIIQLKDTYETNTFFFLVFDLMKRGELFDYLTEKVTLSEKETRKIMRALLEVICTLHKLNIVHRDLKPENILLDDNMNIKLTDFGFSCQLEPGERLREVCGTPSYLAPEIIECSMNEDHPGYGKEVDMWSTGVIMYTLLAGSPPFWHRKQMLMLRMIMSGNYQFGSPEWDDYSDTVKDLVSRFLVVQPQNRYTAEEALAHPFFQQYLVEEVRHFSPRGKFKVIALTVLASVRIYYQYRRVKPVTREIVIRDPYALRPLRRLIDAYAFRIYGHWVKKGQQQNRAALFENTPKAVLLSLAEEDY

88 types of kinases = assay: Kinase inhibition profiling, 88 types of kinases (Test Example 6); details: concentration of 100 nM

## COc1cc(N2CCC(N3CCN(C)CC3)CC2)ccc1Nc1ncnc(Nc2ccccc2S(=O)(=O)C(C)C)n1 [Example 23]
MER
  inhibition at 0.1 µM: < 20%
MNK2
  inhibition at 0.1 µM: 80%
PHKG1
  inhibition at 0.1 µM: < 20%
88 types of kinases
  number of types of kinases (of 88) with 50% or more inhibitory activity: 4 types of kinases
